Results taken from publication PMC9959048, “Lipidation of Naturally Occurring α-Helical Antimicrobial Peptides as a Promising Strategy for Drug Design” (International Journal of Molecular Sciences, 2023).
In brackets after ≈: the same amount, converted by molar mass. Residues, ends and D or L forms follow the SMILES beside them. *: point of attachment. Myristoyl = CCCCCCCCCCCCCC(=O)*; Lauroyl = CCCCCCCCCCCC(=O)*; Octanoyl = CCCCCCCC(=O)*

Key:
S. aureus PCM1650 = assay type: cell-based, Staphylococcus aureus; conditions: Mueller–Hinton broth, inoculum 5 × 10^5 CFU/mL, 24 h, 37 °C, absorbance 600 nm, triplicate
Method: (§1) The evaluation of the antimicrobial activity of the synthesized lipopeptides was performed against the following reference bacterial and fungal strains: Staphylococcus aureus PCM 1650, Staphylococcus aureus PCM 2054, Staphylococcus epidermidis PCM 521, Staphylococcus epidermidis PCM 2118, Escherichia coli PCM 2057, Candida albicans PCM 2566, Candida glabrata CCM 8270, Candida krusei CCM 8271, Candida parapsilosis CCM 8260.
(§2) For the initial cultivation of the bacteria and fungi, Luria-Bertani broth (LB, Biomaxima, Lublin, Poland) and Sabouraud Dextrose broth (SB, Biomaxima, Lublin, Poland) were used, respectively. Antimicrobial properties of the compounds were analyzed through the determination of MIC (minimal inhibitory concentrations) by my means of the serial micro-dilution technique according to the guidelines of Clinical & Laboratory Standard Institute (CLSI) established for aerobic bacteria and yeasts.
(§3) According to the procedures, Mueller–Hinton broth (MHB) was used as the working medium for the analysis of the bacterial susceptibility, while RPMI-1640 (with L-glutamine, without sodium bicarbonate) growth medium buffered with MOPS (morpholinepropanesulfonic acid) and supplemented with 2% glucose was used for the experiments with the fungi.
(§4) The experiments were carried out for 24 h at 37 and 35 °C for the bacteria and fungi, respectively. Then, the absorbance was measured at 600 nm for each well of the 96-well plate using a microplate reader (Sunrise TM, Tecan Trading AG, Männedorf, Switzerland). Based on the obtained results, the degree of inhibition of the growth of microorganisms (expressed in %) in the presence of the tested compounds range was determined with respect to the control probes. Inoculated wells without peptide were treated as a positive control (100% growth), and the wells containing working medium only were defined as a negative control (0% growth). All measurements were repeated in triplicate.

S. aureus PCM2054 = assay type: cell-based, Staphylococcus aureus; conditions: Mueller–Hinton broth, inoculum 5 × 10^5 CFU/mL, 24 h, 37 °C, absorbance 600 nm, triplicate
Method: as §1, §2, §3, §4

S. epidermidis PCM2118 = assay type: cell-based, Staphylococcus epidermidis; conditions: Mueller–Hinton broth, inoculum 5 × 10^5 CFU/mL, 24 h, 37 °C, absorbance 600 nm, triplicate
Method: as §1, §2, §3, §4

S. epidermidis PCM521 = assay type: cell-based, Staphylococcus epidermidis; conditions: Mueller–Hinton broth, inoculum 5 × 10^5 CFU/mL, 24 h, 37 °C, absorbance 600 nm, triplicate
Method: as §1, §2, §3, §4

E. coli PCM2057 = assay type: cell-based, Escherichia coli; conditions: Mueller–Hinton broth, inoculum 5 × 10^5 CFU/mL, 24 h, 37 °C, absorbance 600 nm, triplicate
Method: as §1, §2, §3, §4

C. albicans PCM2566 = assay type: cell-based, Candida albicans; conditions: RPMI-1640 with MOPS and 2% glucose, inoculum 5 × 10^3 CFU/mL, 24 h, 35 °C, absorbance 600 nm, triplicate
Method: as §1, §2, §3, §4

C. glabrata CCM8270 = assay type: cell-based, Candida glabrata; conditions: RPMI-1640 with MOPS and 2% glucose, inoculum 5 × 10^3 CFU/mL, 24 h, 35 °C, absorbance 600 nm, triplicate
Method: as §1, §2, §3, §4

C. krusei CCM8271 = assay type: cell-based, Candida krusei; conditions: RPMI-1640 with MOPS and 2% glucose, inoculum 5 × 10^3 CFU/mL, 24 h, 35 °C, absorbance 600 nm, triplicate
Method: as §1, §2, §3, §4

C. parapsilosis CCM 8260 = assay type: cell-based, Candida parapsilosis; conditions: RPMI-1640 with MOPS and 2% glucose, inoculum 5 × 10^3 CFU/mL, 24 h, 35 °C, absorbance 600 nm, triplicate
Method: as §1, §2, §3, §4

[1] = test system: human breast cancer cells (MCF-7 line, ATCC); test: MTT cytotoxicity assay; assay type: cell-based; conditions: IC50 against HaCaT divided by IC50 for MCF-7
Method: (§5) The prepared plates were further incubated for 48 h. […] The control cell viability was assumed to be 100%. Three independent experiments were carried out in three repetitions.

[2] = test system: human prostate cancer cells (PC3 line, ATCC); test: MTT cytotoxicity assay; assay type: cell-based; conditions: IC50 against HaCaT divided by IC50 for PC3
Method: as §5

POPC liposomes = test: CD, α-helix content in POPC liposomes; assay type: physicochemical; conditions: 25 °C, peptide 0.15 mg/mL, 1.3 mM POPC
Method: (§6) Large unilamellar vesicles (LUV) were obtained by extrusion of MLV liposomes through polycarbonate membrane filters with a pore diameter of 100 nm (Whatman International Ltd., Kent, UK) using a mini-extruder (Avanti Polar Lipids, Inc., Alabaster, AL, USA).
(§7) CD experiments were carried out at 25 °C using a Jasco J-815 spectropolarimeter in the wavelength range 185–260 nm. The concentration of the lipopeptides was 0.15 mg/mL. The CD spectra were recorded in water, PBS (pH 7.4), 1.3 mM POPC and 1.3 mM POPG. The results are plotted as the mean molar ellipticity per one amino acid residue (MRME, deg cm^2 dmol^−1) as a function of the wavelength (nm). Additionally, we performed a conformational analysis of the selected compounds in the presence of S. aureus cells. […] The mixtures were then incubated for 2 h before recording the CD spectra.
(§8) The percentage of the α-helical structure was calculated based on the mean molar ellipticity at 222 nm using the formula: fH=θ222−3000/−36000−3000·100% where θ222 corresponds to the value of the mean molar ellipticity at a wavelength of 222 nm.

POPG liposomes = test: CD, α-helix content in POPG liposomes; assay type: physicochemical; conditions: 25 °C, peptide 0.15 mg/mL, 1.3 mM POPG, from ellipticity at 222 nm
Method: as §6, §7, §8

POPG LUVs = test: Isothermal titration calorimetry, binding to POPG LUVs; conditions: ITC, 25 °C, 0.05 or 0.07 mM peptide titrated with 1.3 or 1.8 mM POPG LUVs; one set of sites model (C10-LL-I: two sets of sites, first line)
Method: as §6
The thermodynamic parameters of the interactions of the lipopeptides with POPG and POPC liposomes were determined by isothermal titration calorimetry (ITC). Measurements were performed at 25 °C using an AutoITC microcalorimeter (MicroCal Inc., Northampton, MA, USA) with a 1.4491 mL sample and reference cells. The experiment consisted in the titration of a buffered peptide solution with a concentration of 0.05 and/or 0.07 mM with a buffered solution containing POPG or POPC LUVs with a lipid concentration of 1.3 and 1.8 mM (10.02 µL; 29 injections, 2 µL for the first injection only), as it was described previously. The result of the titration was a thermogram showing a series of peaks corresponding to the titration steps. A titration curve was obtained after integration of the peak areas. The obtained isotherms were fitted to the “one set of sites” or “two sets of sites” models available in the ORIGIN 7.0 (MicroCal Inc., Northampton, MA, USA), which made it possible to determine the enthalpy (ΔH), the binding constant (KITC) and the stoichiometry (N) of the interactions between the lipopeptide and the lipids. The following formula was used to calculate the entropy change (ΔS) and the Gibbs free energy (ΔG): ΔG=−RTln(55.5KITC)=ΔH−TΔS where: factor 55.5 is the molar concentration of water, R is the gas constant (1.986 cal·mol^−1·K^−1), and T is the absolute temperature.

Compound	MIC, S. aureus PCM1650 (S. aureus PCM1650) [µg/mL]	MIC, S. aureus PCM2054 (S. aureus PCM2054) [µg/mL]	MIC, S. epidermidis PCM2118 (S. epidermidis PCM2118) [µg/mL]	MIC, S. epidermidis PCM521 (S. epidermidis PCM521) [µg/mL]	MIC, E. coli PCM2057 (E. coli PCM2057) [µg/mL]	MIC, C. albicans PCM2566 (C. albicans PCM2566) [µg/mL]	MIC, C. glabrata CCM8270 (C. glabrata CCM8270) [µg/mL]	MIC, C. krusei CCM8271 (C. krusei CCM8271) [µg/mL]	MIC, C. parapsilosis CCM 8260 (C. parapsilosis CCM 8260) [µg/mL]	SI MCF-7 [1]	SI PC3 [2]	θ222/θ208, POPC (POPC liposomes)	α-Helix percentage, POPC (POPC liposomes; from ellipticity at 222 nm) [%]	α-Helix percentage, POPG (POPG liposomes) [%]	pKITC, POPG (POPG LUVs)
CC[C@H](C)[C@H](NC(=O)[C@H](CCCCN)NC(=O)CNC(=O)[C@H](CC(C)C)NC(=O)[C@@H](NC(=O)[C@H](CCCCN)NC(=O)[C@H](CCCCN)NC(=O)[C@H](Cc1c[nH]c2ccccc12)NC(=O)[C@H](CC(N)=O)NC(=O)[C@@H](N)C(C)C)C(C)C)C(=O)N[C@H](C(=O)N[C@@H](CCCCN)C(=O)N[C@H](C(=O)N[C@@H](C)C(=O)N[C@@H](CCCCN)C(N)=O)C(C)C)[C@@H](C)CC [LL-I, reference compound] (H-VNWKKVLGKIIKVAK-NH2)	25 (≈ 14.5 µM)	>50	6.25 (≈ 3.63 µM)	12.5 (≈ 7.25 µM)	12.5 (≈ 7.25 µM)	>50	>50	50 (≈ 29 µM)	50 (≈ 29 µM)	–	–	–	–	–	–
CCCCCCCCCCCC(=O)N[C@H](C(=O)N[C@@H](CC(N)=O)C(=O)N[C@@H](Cc1c[nH]c2ccccc12)C(=O)N[C@@H](CCCCN)C(=O)N[C@@H](CCCCN)C(=O)N[C@H](C(=O)N[C@@H](CC(C)C)C(=O)NCC(=O)N[C@@H](CCCCN)C(=O)N[C@H](C(=O)N[C@H](C(=O)N[C@@H](CCCCN)C(=O)N[C@H](C(=O)N[C@@H](C)C(=O)N[C@@H](CCCCN)C(N)=O)C(C)C)[C@@H](C)CC)[C@@H](C)CC)C(C)C)C(C)C [C12-LL-I] (Lauroyl-VNWKKVLGKIIKVAK-NH2)	12.5 (≈ 6.56 µM)	12.5 (≈ 6.56 µM)	6.25 (≈ 3.28 µM)	12.5 (≈ 6.56 µM)	>50	>50	12.5 (≈ 6.56 µM)	12.5 (≈ 6.56 µM)	3.13 (≈ 1.64 µM)	–	–	–	–	–	–
CCCCCCCCCCCCCC(=O)N[C@@H](CCCCN)C(=O)N[C@@H](CCCNC(=N)N)C(=O)N[C@@H](Cc1ccccc1)C(=O)N[C@@H](CCCCN)C(=O)N[C@@H](CCCCN)C(=O)N[C@@H](Cc1ccccc1)C(=O)N[C@@H](Cc1ccccc1)C(=O)N[C@@H](CCCCN)C(=O)N[C@@H](CCCCN)C(=O)N[C@@H](CC(C)C)C(=O)N[C@@H](CCCCN)C(N)=O [C14-ATRA-1] (Myristoyl-KRFKKFFKKLK-NH2)	12.5 (≈ 7.32 µM)	3.9 (≈ 2.28 µM)	6.25 (≈ 3.66 µM)	25 (≈ 14.6 µM)	>50	2.5 (≈ 1.46 µM)	3.13 (≈ 1.83 µM)	2.5 (≈ 1.46 µM)	3.13 (≈ 1.83 µM)	–	–	–	–	–	–
CCCCCCCC(=O)N[C@@H](CCCCN)C(=O)N[C@@H](CCCNC(=N)N)C(=O)N[C@@H](Cc1ccccc1)C(=O)N[C@@H](CCCCN)C(=O)N[C@@H](CCCCN)C(=O)N[C@@H](Cc1ccccc1)C(=O)N[C@@H](Cc1ccccc1)C(=O)N[C@@H](CCCCN)C(=O)N[C@@H](CCCCN)C(=O)N[C@@H](CC(C)C)C(=O)N[C@@H](CCCCN)C(N)=O [C8-ATRA-1] (Octanoyl-KRFKKFFKKLK-NH2)	–	7.8 (≈ 4.81 µM)	3.13 (≈ 1.93 µM)	3.13 (≈ 1.93 µM)	>50	>50	>50	12.5 (≈ 7.7 µM)	50 (≈ 30.8 µM)	8.55	2.29	0.38	11	20	5.78 ± 0.27
